In patent US8431514B2, “4-cyano-3-benzoylamino-N-phenyl-benzamides for use in pest control” (Syngenta Crop Protection LLC, priority 2009, dated 2013):

Columns and labels:
Format in all cases: in vivo
Heliothis virescens = Heliothis virescens (tobacco budworm) egg test on artificial diet; conditions: 96 h, application rate 200 ppm (concentration in well 18 ppm), eggs 0-24 h old on artificial diet, egg mortality, larval mortality and growth regulation after 4 days
Procedure: (§1) These Examples illustrate the insecticidal and acaricidal properties of the compounds of formula (I). The tests were performed as follows:
(§2) Cotton leaf discs were placed on agar in a 24-well microtiter plate and sprayed with test solutions at an application rate of 200 ppm. After drying, the leaf discs were infested with 5 L1 larvae. The samples were checked for mortality, feeding behavior, and growth regulation 3 days after treatment (DAT). The following compound gave at least 80% control of Spodoptera littoralis: A1, A2, A3, A4, A5, A6, A7, A8, A9, A10, A11, A12, A14, A15, A16, A17, A18, A19, A20. Heliothis Virescens (Tobacco Budworm): Eggs (0-24 h old) were placed in 24-well microtiter plate on artificial diet and treated with test solutions at an application rate of 200 ppm (concentration in well 18 ppm) by pipetting. After an incubation period of 4 days, samples were checked for egg mortality, larval mortality, and growth regulation. The following compound gave at least 80% control of Heliothis virescens: A1, A2, A3, A4, A5, A6, A7, A8, A9, A10, A11, A12, A14, A15, A16, A17, A18, A19, A20. Plutella Xylostella (Diamond Back Moth): 24-well microtiter plate (MTP) with artificial diet was treated with test solutions at an application rate of 200 ppm (concentration in well 18 ppm) by pipetting. After drying, the MTP's were infested with L2 larvae (7-12 per well). After an incubation period of 6 days, samples were checked for larval mortality and growth regulation. The following compound gave at least 80% control of Plutella xylostella: A1, A2, A3, A4, A5, A6, A7, A8, A9, A10, A11, A12, A13, A14, A15, A16, A17, A18, A19, A20. Diabrotica Balteata (Corn Root Worm): A 24-well microtiter plate (MTP) with artificial diet was treated with test solutions at an application rate of 200 ppm (concentration in well 18 ppm) by pipetting. After drying, the MTP's were infested with L2 larvae (6-10 per well). After an incubation period of 5 days, samples were checked for larval mortality and growth regulation. The following compound gave at least 80% control of Diabrotica balteata: A1, A2, A3, A4, A5, A6, A7, A8, A9, A10, A11, A12, A13, A14, A16, A17, A18, A19, A20. Thrips Tabaci (Onion Thrips): Sunflower leaf discs were placed on agar in a 24-well microtiter plate and sprayed with test solutions at an application rate of 200 ppm. After drying, the leaf discs were infested with an […] population of mixed ages. After an incubation period of 7 days, samples were checked for mortality. The following compounds gave at least 80% control of Thrips tabaci: A1, A2, A3, A4, A5, A6, A7, A8, A9, A10, A14, A16, A17, A18, A19, A20. Tetranychus Urticae (Two-Spotted Spider Mite): Bean leaf discs on agar in 24-well microtiter plates were sprayed with test solutions at an application rate of 200 ppm. After drying, the leaf discs are infested with mite populations of mixed ages. 8 days later, discs are checked for egg mortality, larval mortality, and adult mortality. The following compounds gave at least 80% control of Tetranychus urticae: A1, A2, A3, A4, A5, A6, A7, A8, A9, A10, A11, A12, A13, A14, A15, A16, A17, A19, A20.

Diabrotica balteata = Diabrotica balteata (corn root worm) artificial diet test; conditions: 120 h, application rate 200 ppm (concentration in well 18 ppm), L2 larvae, larval mortality and growth regulation after 5 days
Procedure: as §1, §2

Plutella xylostella = Plutella xylostella (diamond back moth) artificial diet test; conditions: 144 h, application rate 200 ppm (concentration in well 18 ppm), L2 larvae, larval mortality and growth regulation after 6 days
Procedure: as §1, §2

Spodoptera littoralis = Spodoptera littoralis (Egyptian cotton leafworm) leaf disc spray test; conditions: foliar, 72 h, application rate 200 ppm, cotton leaf discs, 5 L1 larvae, mortality, feeding behavior and growth regulation 3 days after treatment
Procedure: as §1, §2

Thrips tabaci = Thrips tabaci (onion thrips) sunflower leaf disc spray test; conditions: foliar, 168 h, application rate 200 ppm, sunflower leaf discs, population of mixed ages, mortality after 7 days
Procedure: as §1, §2

Tetranychus urticae = Tetranychus urticae (two-spotted spider mite) bean leaf disc spray test; conditions: foliar, 192 h, application rate 200 ppm, bean leaf discs, mite populations of mixed ages, egg, larval and adult mortality 8 days later, read-out: control of Tetranychus urticae
Procedure: as §1, §2

Measured: pest or weed control at 200 ppm

CCc1cc(C(F)(C(F)(F)F)C(F)(F)C(F)(F)F)cc(C)c1NC(=O)c1ccc(C#N)c(NC(=O)c2ccc(C#N)cc2C)c1 (stereo not shown) [A1, 4-cyano-3-(4′-cyano-2′-methylbenzoylamino)-N-[2-ethyl-6-methyl-4-(1,2,2,3,3,3-hexafluoro-1-trifluoromethylpropyl)phenyl]benzamide]
≥ 80%: all assays above

Cc1cc(C#N)ccc1C(=O)Nc1cc(C(=O)Nc2c(Cl)cc(C(F)(C(F)(F)F)C(F)(F)C(F)(F)F)cc2Br)ccc1C#N (stereo not shown) [A2, N-[2-bromo-6-chloro-4-(1,2,2,3,3,3-hexafluoro-1-trifluoromethylpropyl)-phenyl]-4-cyano-3-(4′-cyano-2′-methylbenzoylamino)benzamide]
≥ 80%: all assays above

Cc1cc(C#N)ccc1C(=O)Nc1cc(C(=O)Nc2c(Br)cc(C(F)(C(F)(F)F)C(F)(F)F)cc2Br)ccc1C#N [A3, 4-cyano-3-(4′-cyano-2′-methylbenzoylamino)-N-[2,6-dibromo-4-(1,2,2,2-tetrafluoro-1-trifluoromethylethyl)phenyl]benzamide]
≥ 80%: all assays above

Cc1cc(C#N)ccc1C(=O)Nc1cc(C(=O)Nc2c(Br)cc(C(F)(C(F)(F)F)C(F)(F)C(F)(F)F)cc2Br)ccc1C#N (stereo not shown) [A4, 4-cyano-3-(4′-cyano-2′-methylbenzoylamino)-N-[2,6-dibromo-4-(1,2,2,3,3,3-hexafluoro-1-trifluoromethylpropyl)phenyl]benzamide]
≥ 80%: all assays above

CCc1cc(C(F)(C(F)(F)F)C(F)(F)C(F)(F)F)cc(Br)c1NC(=O)c1ccc(C#N)c(NC(=O)c2ccc(C#N)cc2C)c1 (stereo not shown) [A5, N-[2-bromo-6-ethyl-4-(1,2,2,3,3,3-hexafluoro-1-trifluoromethylpropyl)-phenyl]-4-cyano-3-(4′-cyano-2′-methylbenzoylamino)benzamide]
≥ 80%: all assays above

Cc1cc(C#N)ccc1C(=O)Nc1c(C#N)ccc(C(=O)Nc2c(Cl)cc(C(F)(C(F)(F)F)C(F)(F)C(F)(F)F)cc2Br)c1F (stereo not shown) [A6, N-[2-bromo-6-chloro-4-(1,2,2,3,3,3-hexafluoro-1-trifluoromethylpropyl)-phenyl]-4-cyano-3-(4′-cyano-2′-methylbenzoylamino)-2-fluorobenzamide]
≥ 80%: all assays above

Cc1cc(C#N)ccc1C(=O)Nc1cc(C(=O)Nc2c(Cl)cc(C(F)(C(F)(F)F)C(F)(F)C(F)(F)F)cc2C#N)ccc1C#N (stereo not shown) [A7, N-[2-chloro-6-cyano-4-(1,2,2,3,3,3-hexafluoro-1-trifluoromethylpropyl)-phenyl]-4-cyano-3-(4′-cyano-2′-methylbenzoylamino)benzamide]
≥ 80%: all assays above

Cc1cc(C#N)ccc1C(=O)Nc1cc(C(=O)Nc2c(Cl)cc(C(F)(C(F)(F)F)C(F)(F)C(F)(F)F)cc2Cl)ccc1C#N (stereo not shown) [A8, 4-cyano-3-(4′-cyano-2′-methylbenzoylamino)-N-[2,6-dichloro-4-(1,2,2,3,3,3-hexafluoro-1-trifluoromethylpropyl)phenyl]benzamide]
≥ 80%: all assays above

COc1cc(C(F)(C(F)(F)F)C(F)(F)C(F)(F)F)cc(C)c1NC(=O)c1ccc(C#N)c(NC(=O)c2ccc(C#N)cc2C)c1 (stereo not shown) [A11, 4-cyano-3-(4′-cyano-2′-methylbenzoylamino)-N-[2-methoxy-6-methyl-4-(1,2,2,3,3,3-hexafluoro-1-trifluoromethylpropyl)phenyl]benzamide]
not listed: Thrips tabaci
≥ 80%: all other assays above

Cc1cc(C#N)ccc1C(=O)Nc1cc(C(=O)Nc2c(Cl)cc(C(OC(=O)c3ccccc3)(C(F)(F)F)C(F)(F)F)cc2Br)ccc1C#N [A12, benzoic acid 1-{3-bromo-5-chloro-4-[4-cyano-3-(4-cyano-2-methyl-benzoylamino)benzoylamino]phenyl}-2,2,2-trifluoro-1-trifluoromethylethyl ester]
not listed: Thrips tabaci
≥ 80%: all other assays above

Cc1cc(C#N)ccc1C(=O)Nc1cc(C(=O)Nc2c(Cl)cc(C(O)(C(F)(F)F)C(F)(F)F)cc2Br)ccc1C#N [A13, N-[2-bromo-6-chloro-4-[1,1,1,3,3,3-hexafluoropropan-2-ol)phenyl]-4-cyano-3-(4′-cyano-2′-methylbenzoylamino)benzamide]
≥ 80%: Diabrotica balteata | Plutella xylostella | Tetranychus urticae

CCc1cc(C(O)(C(F)(F)F)C(F)(F)C(F)(F)F)cc(C)c1NC(=O)c1ccc(C#N)c(NC(=O)c2ccc(C#N)cc2C)c1 (stereo not shown) [A15, 4-cyano-3-(4′-cyano-2′-methyl-benzoylamino)-N-[2-ethyl-6-methyl-4-(2,2,3,3,3-pentafluoro-1-hydroxy-1-trifluoromethylpropyl)phenyl]benzamide]
≥ 80%: Heliothis virescens | Plutella xylostella | Spodoptera littoralis | Tetranychus urticae

Cc1cc(C#N)ccc1C(=O)Nc1c(C#N)ccc(C(=O)Nc2c(Cl)cc(C(F)(C(F)(F)F)C(F)(F)C(F)(F)F)cc2Cl)c1F (stereo not shown) [A18, 4-cyano-3-(4′-cyano-2′-methylbenzoylamino)-N-[2,6-dichloro-4-(1,2,2,3,3,3-hexafluoro-1-trifluoromethylpropyl)phenyl]-2-fluorobenzamide]
not listed: Tetranychus urticae
≥ 80%: all other assays above
